Source: ChEMBL document CHEMBL1153818, “Integration of ligand and structure-based virtual screening for the identification of the first dual targeting agent for heat shock protein 90 (Hsp90) and tubulin” (J Med Chem, 2009)
pIC50: −log10 of the molar value. Calls of active or inactive are those of the source. The rule behind the calls is not given here.

Experiments:
[1] = biological target: Heat shock protein HSP 90-beta (Homo sapiens, UniProt P08238); test: Inhibition of Hsp90 by FP ATP-site binding assay
[2] = species on record: Bos taurus; test: Inhibition of bovine tubulin polymerization
[3] = test system: MCF7; test: Induction of ERalpha degradation in human MCF7 cells at 200 uM after 24 hrs by Western blot analysis; assay type: functional, cell-based
[4] = test system: MCF7; test: Induction of ERalpha degradation in human MCF7 cells at 1 uM after 24 hrs by Western blot analysis; assay type: functional, cell-based

Chain of Heat shock protein HSP 90-beta (P08238 whole entry): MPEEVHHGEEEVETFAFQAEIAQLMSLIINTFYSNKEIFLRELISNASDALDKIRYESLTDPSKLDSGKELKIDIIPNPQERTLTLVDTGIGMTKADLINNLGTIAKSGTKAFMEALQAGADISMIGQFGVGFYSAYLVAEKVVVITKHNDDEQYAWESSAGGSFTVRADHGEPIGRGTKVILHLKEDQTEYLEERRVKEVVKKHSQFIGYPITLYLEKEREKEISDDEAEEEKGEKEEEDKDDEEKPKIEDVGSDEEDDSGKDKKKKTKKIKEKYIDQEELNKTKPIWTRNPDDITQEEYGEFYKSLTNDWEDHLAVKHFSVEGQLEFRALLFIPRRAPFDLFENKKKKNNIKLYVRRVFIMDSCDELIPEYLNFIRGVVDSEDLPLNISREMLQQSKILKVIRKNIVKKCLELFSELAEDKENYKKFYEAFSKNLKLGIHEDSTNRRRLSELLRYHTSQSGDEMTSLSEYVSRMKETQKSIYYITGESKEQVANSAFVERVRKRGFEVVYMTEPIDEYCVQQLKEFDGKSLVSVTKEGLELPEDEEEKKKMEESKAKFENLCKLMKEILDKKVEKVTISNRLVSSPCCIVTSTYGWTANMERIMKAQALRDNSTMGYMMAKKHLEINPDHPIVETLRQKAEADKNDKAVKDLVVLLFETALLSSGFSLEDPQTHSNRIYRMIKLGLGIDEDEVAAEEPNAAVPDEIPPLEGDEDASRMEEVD

| pIC50 [1] | Activity [2] | Compound | Activity [3] | Activity [4] |
| --- | --- | --- | --- | --- |
| 4.09 | Dose-dependent effect | COc1cc(C(=O)n2ncc3cc(N)ccc32)cc(OC)c1OC | Active | – |
| – | – | C=CCNC1=C2C[C@@H](C)C[C@H](OC)[C@H](O)[C@@H](C)/C=C(\C)[C@H](OC(N)=O)[C@@H](OC)/C=C\C=C(/C)C(=O)NC(=CC1=O)C2=O | – | Active |
